Test results taken from US8580820B2, “Tubulysin compounds with high cytotoxicity, pharmaceutical compositions thereof, and method of use thereof” (Kemtech S.r.L., priority 2009, dated 2013).
Where two headings read alike, the source gives them in different places.

Assays:
HL60 (human leukaemia) = assay: Cytotoxicity in vitro, cellular viability (ATPlite Perkin Elmer test), HL60; assay type: cell-based; design: cellular viability (ATPlite Perkin Elmer test): unit not given here; conditions: for GI50: Homo sapiens
Experimental: (§1) The cytotoxic effects of the compounds of formula (A) were evaluated by treating […] with different concentrations of the compounds under screening. The following cell lines were used: A2780 (human ovarian carcinoma), HL60 (human leukaemia), C6 (rat glioma) and HT29 (adenocarcinoma of human colon). The cell lines have been obtained by ECACC (European Collection of Cell Cultures).
(§2) The cell lines have been cultured in 75 cm^2 flasks with culture medium DMEM (Dulbecco's Medium Eagle Modified, Sigma Aldrich®) and the following additives (Sigma Aldrich®): L-Glutamine 2 mM, 10% Fetal Bovine Serum, Penicillin/-Streptomycin, Fungizone, Gentamycin. The incubation was carried out in modified atmosphere incubators (37° C., 5% CO2). When cell confluence was obtained, the cells were propagated by dilution in a ratio 1:3/1:5 by using a Trypsin-EDTA 1× solution and then transferred into 96 well plates in the suitable culture medium. The cells were then treated for 72 hours with different concentrations (10^−13+10^−4 M) of the compounds under examination. For the tests in vitro the compounds obtained in the examples 1.15 and 6.8 were solubilised in dimethylsulphoxide (DMSO). All the tests were performed with a constant DMSO concentration equal to 0.1% by weight.
(§3) In order to control the cellular viability, the ATPlite test (Perkin Elmer) was used. The APTlite test evaluates the ATP production. APT is a marker of cellular viability as it is present in all the metabolically active cells. The test’ is based on the chemiluminiscence due to the ATP reaction with the luciferase and the D-luciferin. The emitted light is proportional to the ATP concentration. For the reading the Victor 3 instrument by Perkin Elmer was used.
(§4) Four readings were taken for each sample solution. The results (average values) for the cytotoxicity of the compounds of formula (A) obtained in examples 1.15 and 6.8 are reported respectively in Tables 1 and 2. It is noted that the GI50 values determined by means of the cellular viability values are lower than 2 nM. This confirms the high cytotoxicity of the compound of formula (A).

[1] = test system: HT29 (adenocarcinoma of human colon); assay: Cytotoxicity in vitro, cellular viability (ATPlite Perkin Elmer test), HT29; assay type: cell-based; design: cellular viability (ATPlite Perkin Elmer test): unit not given here; conditions: for cellular viability (ATPlite Perkin Elmer test): 72 hours
Experimental: as §1, §2, §3, §4

[2] = test system: A2780 (human ovarian carcinoma); assay: Cytotoxicity in vitro, cellular viability (ATPlite Perkin Elmer test), A2780; assay type: cell-based; design: cellular viability (ATPlite Perkin Elmer test): unit not given here; conditions: for GI50: Homo sapiens
Experimental: as §1, §2, §3, §4

[3] = test system: A2780, HL60, C6 and HT29 cell lines; assay: Cytotoxicity in vitro, summary over the cell lines of example 14; assay type: cell-based, human; rat; conditions: all cell lines of Tables 1 and 2; read-out: GI50 values determined by means of the cellular viability values
Experimental: as §1
as §2, with “All the tests were performed with a constant DMSO concentration equal to 0.1% by weight.” left out
(§5) In order to control the cellular viability, the ATPlite test (Perkin Elmer) was used. […] For the reading the Victor 3 instrument by Perkin Elmer was used.
Four readings were taken for each sample solution. […]

C6 (rat glioma) = assay: Cytotoxicity in vitro, cellular viability (ATPlite Perkin Elmer test), C6; assay type: cell-based; conditions: Rattus norvegicus; cellular line C6; read-out: GI50
Experimental: as §1, §2, §3, §4

[4] = test system: cellular lines HL60, A 2780, C6; assay: Cytotoxicity test in vitro on cellular lines (comparative examples 16.10, 17.10); assay type: cell-based, human; rat
Experimental: as §1
The cell lines have been cultured in 75 cm^2 flasks with culture medium DMEM (Dulbecco's Medium Eagle Modified, Sigma Aldrich®) and the following additives (Sigma Aldrich®): L-Glutamine 2 mM, 10% Fetal Bovine Serum, Penicillin/-Streptomycin, Fungizone, Gentamycin. The incubation was carried out in modified atmosphere incubators (37° C., 5% CO2). When cell confluence was obtained, the cells were propagated by dilution in a ratio 1:3/1:5 by using a Trypsin-EDTA 1× solution and then transferred into 96 well plates in the suitable culture medium. […]
as §5
The compound obtained in example 16.9 has been evaluated with the cytotoxicity test in vitro on cellular lines. […]
The cytotoxicity of the compound of the example 17.9 comparative was evaluated as described in example 16.10 comparative for the compound 16.9.

CCC(C)[C@H](NC(=O)[C@H]1CCCCN1C)C(=O)N(Cc1ccccc1)[C@H](C[C@@H](OC(C)=O)c1nc(C(=O)N[C@@H](Cc2ccccc2)C[C@H](C)C(=O)O)cs1)C(C)C (stereo in doubt) [Example 1.15, (2S,4R)-4-(2-((1R,3R)-1-acetoxy-3-((2S,3R)—N-benzyl-3-methyl-2-(1-methylpiperidin-2-carboxamido)pentanamido)-4-methylpentyl)thiazol-4-carboxamido)-2-methyl-5-phenyl-pentanoic acid]
GI50 × 10^9 (HL60 (human leukaemia); HL60, 72 hours, value is GI50 multiplied by 10^9, Table 1): 0.0004 moles/litre | cellular viability (ATPlite Perkin Elmer test) (HL60 (human leukaemia); HL60, compound 10^−4 mole/litre, 72 hours): 0.47 | cellular viability (ATPlite Perkin Elmer test) (HL60 (human leukaemia); HL60, compound 10^−5 mole/litre, 72 hours): 2.57 | cellular viability (ATPlite Perkin Elmer test) (HL60 (human leukaemia); HL60, compound 10^−6 mole/litre, 72 hours): 2.99 | cellular viability (ATPlite Perkin Elmer test) (HL60 (human leukaemia); HL60, compound 10^−7 mole/litre, 72 hours): 2.69 | cellular viability (ATPlite Perkin Elmer test) (HL60 (human leukaemia); HL60, compound 10^−8 mole/litre, 72 hours): 2.94 | cellular viability (ATPlite Perkin Elmer test) (HL60 (human leukaemia); HL60, compound 10^−9 mole/litre, 72 hours): 3.66 | cellular viability (ATPlite Perkin Elmer test) (HL60 (human leukaemia); HL60, compound 10^−10 mole/litre, 72 hours): 8.29 | cellular viability (ATPlite Perkin Elmer test) (HL60 (human leukaemia); HL60, compound 10^−11 mole/litre, 72 hours): 22.65 | cellular viability (ATPlite Perkin Elmer test) (HL60 (human leukaemia); HL60, compound 10^−12 mole/litre, 72 hours): 34.26 | cellular viability (ATPlite Perkin Elmer test) (HL60 (human leukaemia); HL60, compound 10^−13 mole/litre, 72 hours): 98.98 | GI50 ([1]; Homo sapiens, HT-29, 72 hours, value is GI50 multiplied by 10^9, Table 1): 0.312 nM | cellular viability (ATPlite Perkin Elmer test) ([1]; compound 10^−4 mole/litre): 15.14 | cellular viability (ATPlite Perkin Elmer test) ([1]; compound 10^−5 mole/litre): 14.55 | cellular viability (ATPlite Perkin Elmer test) ([1]; compound 10^−6 mole/litre): 15.43 | cellular viability (ATPlite Perkin Elmer test) ([1]; compound 10^−7 mole/litre): 16.85 | cellular viability (ATPlite Perkin Elmer test) ([1]; compound 10^−8 mole/litre): 17.55 | cellular viability (ATPlite Perkin Elmer test) ([1]; compound 10^−9 mole/litre): 20.77 | cellular viability (ATPlite Perkin Elmer test) ([1]; compound 10^−10 mole/litre): 99.08 | cellular viability (ATPlite Perkin Elmer test) ([1]; compound 10^−11 mole/litre): 102.2 | cellular viability (ATPlite Perkin Elmer test) ([1]; compound 10^−12 mole/litre): 103.2 | cellular viability (ATPlite Perkin Elmer test) ([1]; compound 10^−13 mole/litre): 104.5 | GI50 ([2]; 72 hours, value is GI50 multiplied by 10^9, Table 1, read-out: GI50 × 10^9): 0.0018 nM | cellular viability (ATPlite Perkin Elmer test) ([2]; compound 10^−4 mole/litre, 72 hours): 3.10 | cellular viability (ATPlite Perkin Elmer test) ([2]; compound 10^−5 mole/litre, 72 hours): 7.23 | cellular viability (ATPlite Perkin Elmer test) ([2]; compound 10^−6 mole/litre, 72 hours): 9.60 | cellular viability (ATPlite Perkin Elmer test) ([2]; compound 10^−7 mole/litre, 72 hours): 10.60 | cellular viability (ATPlite Perkin Elmer test) ([2]; compound 10^−8 mole/litre, 72 hours): 11.78 | cellular viability (ATPlite Perkin Elmer test) ([2]; compound 10^−9 mole/litre, 72 hours): 25.08 | cellular viability (ATPlite Perkin Elmer test) ([2]; compound 10^−10 mole/litre, 72 hours): 25.04 | cellular viability (ATPlite Perkin Elmer test) ([2]; compound 10^−11 mole/litre, 72 hours): 32.71 | cellular viability (ATPlite Perkin Elmer test) ([2]; compound 10^−12 mole/litre, 72 hours): 65.66 | cellular viability (ATPlite Perkin Elmer test) ([2]; compound 10^−13 mole/litre, 72 hours): 100.1 | GI50 [3]: < 2 nM

CC[C@H](C)[C@H](NC(=O)[C@H]1CCCCN1C)C(=O)N(CCOC)[C@H](C[C@@H](OC(C)=O)c1nc(C(=O)NC)cs1)C(C)C [Example 15.4, (1R,3R)-3-((2S,3S)—N-(2-methoxyethyl)-3-methyl-2-((R)-1-methylpiperidine-2-carboxamido)pentanamido)-4-methyl-1-(4-(methylcarbamoyl)thiazol-2-yl)pentyl acetate, reference compound]
cell viability (HL60 (human leukaemia); HL60, concentration of 10^−10 mole/liter): 96% | cell viability (HL60 (human leukaemia); HL60, concentration of 10^−11 mole/liter): 99.8% | times less toxic than the compounds of the present invention (HL60 (human leukaemia); HL60, ratio of GI50 values): 10^3 times | GI50 (HL60 (human leukaemia); HL-60, HL60, read-out: citotoxicity, expressed as GI50): 10 nM

CC[C@H](C)[C@H](NC(=O)C1CCCCN1C)C(=O)N[C@H](C[C@@H](OC(C)=O)c1nc(C(=O)N[C@@H](Cc2ccccc2)C[C@H](C)C(=O)O)cs1)c1ccc(OC)cc1 (stereo partly drawn) [Example 16.9, (2S,4R)-4-(2-((1R,3R)-1-acetoxy-3-(4-methoxy-phenyl)-3-((2S,3S)-3-methyl-2-((R)-1-methylpiperidin-2-carbox-amido)pentanamido)propyl)thiazol-4-carboxamido)-2-methyl-5-phenylpentanoic acid, reference compound]
GI50 (HL60 (human leukaemia); cellular line HL 60, read-out: GI50): > 10000 nM | GI50 ([2]; cellular line A 2780, read-out: GI50): > 100000 nM | GI50 (C6 (rat glioma)): > 10000 nM

CC[C@H](C)[C@H](NC(=O)[C@H]1CCCCN1C)C(=O)N[C@H](C[C@@H](OC(C)=O)c1nc(C(=O)N[C@@H](Cc2ccccc2)C[C@H](C)C(=O)O)cs1)C1CCCCC1 [Example 17.9, (2S,4R)-4-(2-((1R,3R)-1-acetoxy-3-cyclohexyl-3-((2S,3S)-3-methyl-2-((R)-1-methyl-piperidin-2-carboxamido)pentanamido)propyl)thiazol-4-carboxamido)-2-methyl-5-phenyl pentanoic acid]
GI50 ([4]; Homo sapiens, HL60/A, evaluated as in example 16.10, cellular line not stated): 10000 nM | times higher than the GI50 of the compounds of the invention ([4]; ratio of GI50 values): 10,000 times
